Assay results taken from patent US20230123334A1, “AMINO LIPID COMPOUND, PREPARATION METHOD THEREFOR, AND APPLICATION THEREOF” (SHENZHEN SHENXIN BIOTECHNOLOGY CO., LTD., priority 2020, published 2023).

test system: HEK293 cells; assay: Preliminary screening as DNA vectors, GFP transfection of HEK293 cells; format: cell-based; details: amino lipid/DOPE liposome with 75 ng plasmid DNA (psin-EGFP-IRES-Puro); number of GFP-expressing cells divided by total nuclei (Hoechst)
Outline: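 HEK293 cells in DMEM/10% FBS transfected with 75 ng EGFP plasmid per well complexed with amino lipid/DOPE liposomes in pH 5.6 sodium acetate. Hoechst nuclear stain added 20-24 h post-transfection, then cells cultured another 20-24 h. Confocal imaging gives GFP-positive cells as % of total nuclei.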

| SMILES | Absolute DNA transfection efficiency in HEK293 cells [%] |
| --- | --- |
| CCCCCCCCCSc1nc(NCCCCCC)nc(NCCCN(C)C)n1 [S9N6 D6] | 8.8 |
| CCCCCCCCCSc1nc(NCCCCCC)nc(NCCN(CC)CC)n1 [S9N6 D7] | 9.8 |
| CCCCCCCCCSc1nc(NCCCCCC)nc(NCCCN2CCOCC2)n1 [S9N6 D8] | 7.8 |
| CCCCCCCCCSc1nc(NCCCCCC)nc(NCCCN2CCN(C)CC2)n1 [S9N6 D9] | 11.0 |
| CCCCCCCCCSc1nc(NCCCCCC)nc(NCC2CCN(C)CC2)n1 [S9N6 D10] | 9.7 |
| CCCCCCCCCSc1nc(NCCCCCCC)nc(NCCN(C)C)n1 [S9N7 D1] | 36.0 |
| CCCCCCCCCSc1nc(NCCCCCCC)nc(NCCN2CCOCC2)n1 [S9N7 D2] | 4.4 |
| CCCCCCCCCSc1nc(NCCCCCCC)nc(NCCN2CCCC2)n1 [S9N7 D3] | 27.3 |
| CCCCCCCCCSc1nc(NCCCCCCC)nc(NCCN2CCCCC2)n1 [S9N7 D4] | 21.9 |
| CCCCCCCCCSc1nc(NCCCCCCC)nc(NCCN2CCN(C)CC2)n1 [S9N7 D5] | 18.3 |
| CCCCCCCCCSc1nc(NCCCCCCC)nc(NCCCN(C)C)n1 [S9N7 D6] | 12.4 |
| CCCCCCCCCSc1nc(NCCCCCCC)nc(NCCN(CC)CC)n1 [S9N7 D7] | 15.2 |
| CCCCCCCCCSc1nc(NCCCCCCC)nc(NCCCN2CCOCC2)n1 [S9N7 D8] | 6.1 |
| CCCCCCCCCSc1nc(NCCCCCCC)nc(NCCCN2CCN(C)CC2)n1 [S9N7 D9] | 12.1 |
| CCCCCCCCCSc1nc(NCCCCCCC)nc(NCC2CCN(C)CC2)n1 [S9N7 D10] | 9.3 |
| CCCCCCCCCSc1nc(NCCCCCCCC)nc(NCCN(C)C)n1 [S9N8 D1] | 37.3 |
| CCCCCCCCCSc1nc(NCCCCCCCC)nc(NCCN2CCOCC2)n1 [S9N8 D2] | 13.9 |
| CCCCCCCCCSc1nc(NCCCCCCCC)nc(NCCN2CCCC2)n1 [S9N8 D3] | 37.6 |
| CCCCCCCCCSc1nc(NCCCCCCCC)nc(NCCN2CCCCC2)n1 [S9N8 D4] | 27.3 |
| CCCCCCCCCSc1nc(NCCCCCCCC)nc(NCCN2CCN(C)CC2)n1 [S9N8 D5] | 30.3 |
| CCCCCCCCCSc1nc(NCCCCCCCC)nc(NCCCN(C)C)n1 [S9N8 D6] | 17.9 |
| CCCCCCCCCSc1nc(NCCCCCCCC)nc(NCCN(CC)CC)n1 [S9N8 D7] | 15.7 |
| CCCCCCCCCSc1nc(NCCCCCCCC)nc(NCCCN2CCOCC2)n1 [S9N8 D8] | 12.2 |
| CCCCCCCCCSc1nc(NCCCCCCCC)nc(NCCCN2CCN(C)CC2)n1 [S9N8 D9] | 25.7 |
| CCCCCCCCCSc1nc(NCCCCCCCC)nc(NCC2CCN(C)CC2)n1 [S9N8 D10] | 17.2 |
| CCCCCCCCCNc1nc(NCCN(C)C)nc(SCCCCCCCCC)n1 [S9N9 D1] | 35.3 |

| SMILES | Absolute DNA transfection efficiency in HEK293 cells [%] |
| --- | --- |
| CCCCCCCCCNc1nc(NCCN2CCOCC2)nc(SCCCCCCCCC)n1 [S9N9 D2] | 24.0 |
| CCCCCCCCCNc1nc(NCCN2CCCC2)nc(SCCCCCCCCC)n1 [S9N9 D3] | 54.9 |
| CCCCCCCCCNc1nc(NCCN2CCCCC2)nc(SCCCCCCCCC)n1 [S9N9 D4] | 18.0 |
| CCCCCCCCCNc1nc(NCCN2CCN(C)CC2)nc(SCCCCCCCCC)n1 [S9N9 D5] | 47.4 |
| CCCCCCCCCNc1nc(NCCCN(C)C)nc(SCCCCCCCCC)n1 [S9N9 D6] | 60.6 |
| CCCCCCCCCNc1nc(NCCN(CC)CC)nc(SCCCCCCCCC)n1 [S9N9 D7] | 49.8 |
| CCCCCCCCCNc1nc(NCCCN2CCOCC2)nc(SCCCCCCCCC)n1 [S9N9 D8] | 14.8 |
| CCCCCCCCCNc1nc(NCCCN2CCN(C)CC2)nc(SCCCCCCCCC)n1 [S9N9 D9] | 50.7 |
| CCCCCCCCCNc1nc(NCC2CCN(C)CC2)nc(SCCCCCCCCC)n1 [S9N9 D10] | 34.5 |
| CCCCCCCCCCCNc1nc(NCCN(C)C)nc(SCCCCCCCCC)n1 [S9N11 D1] | 35.3 |
| CCCCCCCCCCCNc1nc(NCCN2CCOCC2)nc(SCCCCCCCCC)n1 [S9N11 D2] | 16.2 |
| CCCCCCCCCCCNc1nc(NCCN2CCCC2)nc(SCCCCCCCCC)n1 [S9N11 D3] | 43.4 |
| CCCCCCCCCCCNc1nc(NCCN2CCCCC2)nc(SCCCCCCCCC)n1 [S9N11 D4] | 8.3 |
| CCCCCCCCCCCNc1nc(NCCN2CCN(C)CC2)nc(SCCCCCCCCC)n1 [S9N11 D5] | 45.0 |
| CCCCCCCCCCCNc1nc(NCCCN(C)C)nc(SCCCCCCCCC)n1 [S9N11 D6] | 55.4 |
| CCCCCCCCCCCNc1nc(NCCN(CC)CC)nc(SCCCCCCCCC)n1 [S9N11 D7] | 15.7 |
| CCCCCCCCCCCNc1nc(NCCCN2CCOCC2)nc(SCCCCCCCCC)n1 [S9N11 D8] | 26.8 |
| CCCCCCCCCCCNc1nc(NCCCN2CCN(C)CC2)nc(SCCCCCCCCC)n1 [S9N11 D9] | 49.3 |
| CCCCCCCCCCCNc1nc(NCC2CCN(C)CC2)nc(SCCCCCCCCC)n1 [S9N11 D10] | 42.5 |
| CCCCCCCCCCCCNc1nc(NCCN(C)C)nc(SCCCCCCCCC)n1 [S9N12 D1] | 39.3 |
| CCCCCCCCCCCCNc1nc(NCCN2CCOCC2)nc(SCCCCCCCCC)n1 [S9N12 D2] | 13.0 |
| CCCCCCCCCCCCNc1nc(NCCN2CCCC2)nc(SCCCCCCCCC)n1 [S9N12 D3] | 47.3 |
| CCCCCCCCCCCCNc1nc(NCCN2CCCCC2)nc(SCCCCCCCCC)n1 [S9N12 D4] | 8.0 |
| CCCCCCCCCCCCNc1nc(NCCN2CCN(C)CC2)nc(SCCCCCCCCC)n1 [S9N12 D5] | 48.2 |
| CCCCCCCCCCCCNc1nc(NCCCN(C)C)nc(SCCCCCCCCC)n1 [S9N12 D6] | 70.5 |
| CCCCCCCCCCCCNc1nc(NCCN(CC)CC)nc(SCCCCCCCCC)n1 [S9N12 D7] | 12.4 |
